Experiments:
[1] = system: human peripheral blood mononuclear cells (PBMC); test: PBMC cytotoxicity assay (CellTiter-Glo); type: cell-based; conditions: 2 days, pCC50
Procedure, shortened: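 % cytotoxicity was taken from CellTiter-Glo luminescence, using wells without cells and stimulated DMSO wells as references, and fitted by four-parameter curve to give XC50. Cells were human PBMC at 50,000 per well, activated with 100 ng/ml IFN-γ plus 50 ng/ml LPS. Incubation with 11-point, 3-fold dilution series ran for 2 days at 37 °C.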

[2] = biological target: indoleamine 2, 3-dioxygenase (IDO1) (Homo sapiens, UniProt P14902); test: IDO1 PBMC RapidFire MS assay (kynurenine detection by mass spectrometry); type: cell-based; set-up: to induce the expression of indoleamine 2, 3-dioxygenase (IDO1); host or cells: human PBMC stimulated with IFN-gamma and LPS; conditions: human PBMC stimulated with IFN-γ and LPS, 2 days, pIC50, read-out: PBMC PXC50 (converted)
indoleamine 2, 3-dioxygenase (IDO1), sequence (P14902 whole entry): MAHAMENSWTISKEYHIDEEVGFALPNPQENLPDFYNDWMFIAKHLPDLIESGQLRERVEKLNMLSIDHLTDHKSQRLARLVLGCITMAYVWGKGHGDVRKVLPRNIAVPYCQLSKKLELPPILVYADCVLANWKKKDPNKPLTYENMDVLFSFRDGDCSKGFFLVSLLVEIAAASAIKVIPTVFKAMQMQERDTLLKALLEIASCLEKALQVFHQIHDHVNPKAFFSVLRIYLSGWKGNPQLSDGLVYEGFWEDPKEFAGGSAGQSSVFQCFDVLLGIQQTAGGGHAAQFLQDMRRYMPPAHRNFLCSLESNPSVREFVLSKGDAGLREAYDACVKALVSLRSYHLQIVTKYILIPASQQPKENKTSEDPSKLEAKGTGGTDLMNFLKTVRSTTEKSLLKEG
Procedure, shortened: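 Kynurenine output, read by RapidFire mass spectrometry as ratio to an internal standard, was measured after 2-day compound exposure (11-point, 3-fold dilutions) of human PBMCs induced with 100 ng/ml IFN-γ and 50 ng/ml LPS. Cell viability tracked alongside via ATP luminescence; XC50 from curve fitting.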

SMILES | IC50 [2] | PBMC TOX PXC50 [1]
CC(C)CN(c1ccc([C@H](C)CC(=O)O)cc1Nc1cnc(Cl)cn1)C1CCOCC1 [Example 12, (R)-3-(3-((5-chloropyrazin-2-yl)amino)-4-(isobutyl(tetrahydro-2H-pyran-4-yl)amino)phenyl)butanoic Acid] | 1 nM | <5
CNC(=O)c1nnc(Nc2cc(C(C)CC(=O)O)ccc2N(CC(C)C)C2CCCCC2)s1 (stereo not drawn) [Example 79] | 5.01 nM | <5
CC(C)CN(c1ccc([C@H](C)CC(=O)O)cc1Nc1ccc(C(F)(F)F)nn1)C1CCOCC1 [Example 18, (R)-3-(4-(isobutyl(tetrahydro-2H-pyran-4-yl)amino)-3-((6-(trifluoromethyl)pyridazin-3-yl)amino)phenyl)butanoic Acid] | 2 nM | <5
CC(=O)N1CCC(N(CC(C)C)c2ccc([C@H](C)CC(=O)O)cc2Nc2nc(C(F)(F)F)ns2)CC1 [Example 70, (R)-3-(4-((1-acetylpiperidin-4-yl) (isobutyl)amino)-3-((3-(trifluoromethyl)-1,2,4-thiadiazol-5-yl)amino)phenyl)butanoic Acid] | 3.16 nM | <5
COC(=O)c1c[nH]c(Nc2cc([C@H](C)CC(=O)O)ccc2N(CC(C)C)[C@H]2CC[C@@H](OC)CC2)n1 [Example 46, (R)-3-(4-(isobutyl((1s,4s)-4-methoxycyclohexyl)amino)-3-((4-(methoxycarbonyl)-1H-imidazol-2-yl)amino)phenyl)butanoic Acid] | 1.58 nM | 5.2
CO[C@H]1CC[C@H](N(CC(C)C)c2ccc([C@H](C)CC(=O)O)cc2Nc2ccc(Cl)cn2)CC1 [Example 55, (R)-3-(3-((5-chloropyridin-2-yl)amino)-4-(isobutyl((1r,4R)-4-methoxycyclohexyl)amino)phenyl)butanoic Acid] | 3.16 nM | <5
CO[C@H]1CC[C@@H](N(CC(C)C)c2ccc([C@H](C)CC(=O)O)cc2Nc2n[nH]c(C3CC3)n2)CC1 [Example 63, (R)-3-(3-((5-cyclopropyl-1H-1,2,4-triazol-3-yl)amino)-4-(isobutyl((cis)-4-methoxycyclohexyl)amino)phenyl)butanoic Acid] | 6.31 nM | <5
CO[C@H]1CC[C@@H](N(CC(C)C)c2ccc([C@H](C)CC(=O)O)cc2Nc2nc(C(F)(F)F)c[nH]2)CC1 [Example 62, (R)-3-(4-(isobutyl((cis)-4-methoxycyclohexyl)amino)-3-((4-(trifluoromethyl)-1H-imidazol-2-yl)amino)phenyl)butanoic Acid] | 3.98 nM | <5
CC(C)CN(c1ccc(-c2ccccc2C(=O)O)cc1Nc1nc(C#N)ns1)C1CCCCC1 [Example 89, 3′-((3-cyano-1,2,4-thiadiazol-5-yl)amino)-4′-(cyclohexyl(isobutyl)amino)-[1,1′-biphenyl]-2-carboxylic Acid] | 3.98 nM | <5
CC(C)CN(c1ccc([C@H](C)CC(=O)O)cc1Nc1ccc(Cl)c(C#N)n1)C1CCOCC1 [Example 30, (R)-3-(3-((5-chloro-6-cyanopyridin-2-yl)amino)-4-(isobutyl(tetrahydro-2H-pyran-4-yl)amino)phenyl)butanoic Acid] | 7.94 nM | <5
CC(C)CN(CC(C)C)c1ccc(C(C)(C)CC(=O)O)cc1Nc1nc(C(F)(F)F)ns1 [Example 3, 3-(4-(diisobutylamino)-3-((3-(trifluoromethyl)-1,2,4-thiadiazol-5-yl)amino)phenyl)-3-methylbutanoic Acid] | 1.58 nM | <5

Continued, in another order:

IC50 [2] | SMILES | PBMC TOX PXC50 [1]
200 nM | CO[C@H]1CC[C@H](N(CC(C)C)c2ccc([C@H](C)CC(=O)O)cc2Nc2n[nH]c(C#N)n2)CC1 (racemic) [example 222, (3RS)-3-{3-[(5-cyano-1H-1,2,4-triazol-3-yl)amino]-4-[(2-methylpropyl)[(1rs&,4rs&)-4-methoxycyclohexyl]ami-no]phenyl}butanoic acid] | <5
316 nM | CC(C)CN(c1ccc([C@H](C)CC(=O)O)cc1Nc1ccc(C(N)=O)nn1)C1CCOCC1 [example 253, (3R)-3-{3-[(6-carbamoylpyridazin-3-yl)amino]-4-[(2-methylpropyl)(oxan-4-yl)amino]phenyl}butanoic acid] | <5
501 nM | CC(C)CN(c1ccc([C@H](C)CC(=O)O)cc1Nc1n[nH]c(C(N)=O)n1)C1CCOCC1 [example 227, (3R)-3-{3-[(5-carbamoyl-1H-1,2,4-triazol-3-yl)amino]-4-[(2-methylpropyl)(oxan-4-yl)amino]phenyl}butanoic acid] | <5
2510 nM | CC(C)CN(c1ccc(C(C)Nc2c(O)c(=O)c2=O)cc1Nc1nc(C(F)(F)F)ns1)C1CCOCC1 (stereo not drawn) [example 256, 3-hydroxy-4-[(1-{4-[(2-methylpropyl)(oxan-4-yl)amino]-3-{[3-(trifluoromethyl)-1,2,4-thiadiazol-5-yl]amino}phenyl}ethyl)amino]cyclobut-3-ene-1,2-dione] | <5
2000 nM | Cc1ccc(CC(=O)Nc2cc(-c3ccccc3C(=O)O)ccc2N(CC(C)C)C23CC(C2)C3)cc1 [example 268, 4′-({bicyclo[1.1.1]pentan-1-yl}(2-methylpropyl)amino)-3′-[2-(4-methylphenyl)acetamido]-[1,1′-biphenyl]-2-carboxylic acid] | <5
> 10000 nM | CC(C)CN(c1ccc([C@H](C)CC(=O)O)cc1Nc1ncc(C(N)=O)cn1)C1CCOCC1 [example 248, (3R)-3-{3-[(5-carbamoylpyrimidin-2-yl)amino]-4-[(2-methylpropyl)(oxan-4-yl)amino]phenyl}butanoic acid] | <5
3980 nM | CC(C)CN(CC(C)C)c1ccc(C(C)CC(=O)O)cc1Nc1nnnn1C (stereo not drawn) [example 252, 3-{4-[bis(2-methylpropyl)amino]-3-[(1-methyl-1H-1,2,3,4-tetrazol-5-yl)amino]phenyl}butanoic acid] | <5
100 nM | CC(C)CN(CCCCCNC(=O)OC1CC/C=C/CCC1)c1ccc(C(C)CC(=O)O)cc1Nc1nc(C(F)(F)F)ns1 (stereo not drawn) [example 259, 3-(4-{[5-({[(4E)-cyclooct-4-en-1-yloxy]carbonyl}amino)pentyl](2-methylpropyl)amino}-3-{[3-(trifluoromethyl)-1,2,4-thiadiazol-5-yl]amino}phenyl)butanoic acid] | <4.3
7.94 nM | CC(C)CN(c1ccc([C@H](C)CC(=O)O)cc1Nc1nc(Cl)ns1)C1CC2(CCC2)C1 [Example 98, (R)-3-(3-((3-chloro-1,2,4-thiadiazol-5-yl)amino)-4-(isobutyl(spiro[3.3]heptan-2-yl)amino)phenyl)butanoic Acid] | <5
126 nM | CC(C)CN(c1ccc([C@H](C)CC(=O)O)cc1Nc1n[nH]c(C#N)n1)C1CCOCC1 [example 226, (3R)-3-{3-[(5-cyano-1H-1,2,4-triazol-3-yl)amino]-4-[(2-methylpropyl)(oxan-4-yl)amino]phenyl}butanoic acid] | <5
79.4 nM | CC(C)CN(c1ccc([C@H](C)CC(=O)O)cc1Nc1ncc(C(F)(F)F)cn1)C1CCOCC1 [example 241, (3R)-3-{4-[(2-methylpropyl)(oxan-4-yl)amino]-3-{[5-(trifluoromethyl)pyrimi-din-2-yl]amino}phenyl}butanoic acid] | <5
398 nM | CC(C)CN(CC(C)C)c1ccc([C@H](C)CC(=O)O)cc1Nc1nc(C(F)(F)F)cn1COCC[Si](C)(C)C [example 220, (3R)-3-{4-[bis(2-methylpropyl)amino]-3-{[4-(trifluoromethyl)-1-{[2-(trimethylsilyl)ethoxy]methyl}-1H-imidazol-2-yl]amino}phenyl}butanoic acid] | <5
20 nM | CC(C)CN(c1ccc([C@H](C)CC(=O)NO)cc1Nc1nc(C(F)(F)F)ns1)C1CCOCC1 [example 233, (3R)-N-hydroxy-3-{4-[(2-methylpropyl)(oxan-4-yl)amino]-3-{[3-(trifluoromethyl)-1,2,4-thiadiazol-5-yl]amino}phenyl}butanoic amide] | <5
100 nM | CC(C)CN(c1ccc([C@H](C)CC(=O)O)cc1Nc1n[nH]c(C(F)(F)F)n1)[C@H]1CC[C@H](O)CC1 (racemic) [example 219, (3RS)-3-{4-[(2-methylpropyl)[(1rs&,4rs&)-4-hydroxycyclohexyl]amino]-3-{[5-(trifluoromethyl)-1H-1,2,4-triazol-3-yl]amino}phenyl}butanoic acid] | <5
1.26 nM | CC(C)CN(c1ccc([C@H](C)Cc2nnn[nH]2)cc1Nc1nc(C(F)(F)F)ns1)C1CCOCC1 [Example 99, (R)-4-(1-(1H-tetrazol-5-yl)propan-2-yl)-N^1-isobutyl-N^1-(tetrahydro-2H-pyran-4-yl)-N^2-(3-(trifluoromethyl)-1,2,4-thiadiazol-5-yl)benzene-1,2-diamine] | <5
1260 nM | CC(C)CN(CC(C)C)c1ccc(C(C)CC(=O)O)cc1Nc1nnn(C(C)C)n1 (stereo not drawn) [example 250, 3-{4-[bis(2-methylpropyl)amino]-3-{[2-(propan-2-yl)-2H-1,2,3,4-tetrazol-5-yl]amino}phenyl}butanoic acid] | <5

— patent publication US10899754B2, “Modulators of indoleamine 2,3-dioxygenase” (GLAXOSMITHKLINE INTELLECTUAL PROPERTY DEVELOPMENT LIMITED, priority 2016, dated 2021)
